Results on 24 compounds are retold here after patent US10287301B2 (Achillion Pharmaceuticals, Inc., priority 2015, dated 2019).

By IC50 is commonly meant the midpoint of a concentration-inhibition curve.

Sequence of Human Factor D (P00746 26-253): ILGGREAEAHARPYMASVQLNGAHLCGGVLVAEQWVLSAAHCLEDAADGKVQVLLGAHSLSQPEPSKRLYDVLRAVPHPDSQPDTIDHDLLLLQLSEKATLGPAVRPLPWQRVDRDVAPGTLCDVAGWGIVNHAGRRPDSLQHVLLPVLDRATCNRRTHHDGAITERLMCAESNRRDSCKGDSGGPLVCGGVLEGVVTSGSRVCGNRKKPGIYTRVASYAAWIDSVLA

The first assay concerns the target Human Factor D (Homo sapiens (Human), UniProt P00746). Description: Human Factor D Assay. Type of assay: biochemical. Conditions: Human Factor D assay of Example 8; Table 2; read-out: IC50. The essentials: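 Factor D (from human serum) 80 nM final + cpd, 5 min RT, 50 mM Tris/1M NaCl pH 7.5; add Z-L-Lys-SBzl 100 μM and DTNB 100 μM final. IC50 by nonlinear fit of rates vs [cpd].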
In the case of `CC(=O)c1cn(CC(=O)N2[C@@H]3C[C@@H]3C[C@H]2C(=O)Nc2cncc(Br)n2)c2ccc(-c3cnc4cc(C)nn4c3)cc12` [Compound 331, (1R,3S,5R)-2-(2-(3-acetyl-5-(2-methylpyrazolo[1,5-a]pyrimidin-6-yl)-1H-indol-1-yl)acetyl)-N-(6-bromopyrazin-2-yl)-2-azabicyclo[3.1.0] hexane-3-carboxamide], the IC50 was below 1 µM.

Consider `CC(=O)c1nn(CC(=O)N2C[C@H](F)C[C@H]2C(=O)Nc2cc(C)cc(Br)n2)c2ccc(-c3cnc4cc(C)nn4c3)cc12` [Compound 332, (2S,4R)-1-(2-(3-acetyl-5-(2-methylpyrazolo[1,5-a]pyrimidin-6-yl)-1H-indazol-1-yl)acetyl)-N-(6-bromo-4-methylpyridin-2-yl)-4-fluoropyrrolidine-2-carboxamide], for which the IC50 is below 1 µM.

The same assay, now with this note: Table 3; Human Factor D 80 nM, substrate Z-L-Lys-SBzl; read-out: IC50 (Stars).
For `CC(=O)c1cn(CC(=O)N2C[C@H](F)C[C@H]2C(=O)Nc2cccc(-c3ccccc3Cl)c2F)c2ccc(-c3cnc(O[C@@H]4CO[C@H]5[C@@H]4OC[C@H]5O)nc3)cc12` [Compound 333, (2S,4R)-1-(2-(3-acetyl-5-(2-(((3R,3aR,6R,6aR)-6-hydroxyhexahydrofuro [3,2-b]furan-3-yl)oxy)pyrimidin-5-yl)-1H-indol-1-yl)acetyl)-N-(2′-chloro-2-fluoro-[1,1′-biphenyl]-3-yl)-4-fluoropyrrolidine-2-carboxamide], the IC50 is below 1 µM.

Take `CC(=O)c1cn(CC(=O)N2C[C@H](F)C[C@H]2C(=O)Nc2cccc(Br)n2)c2ccc(-c3cnc(O[C@@H]4CO[C@H]5[C@@H]4OC[C@H]5O)nc3)cc12` [Compound 334, (2S,4R)-1-(2-(3-acetyl-5-(2-(((3R,3aR,6R,6aR)-6-hydroxyhexahydrofuro [3,2-b]furan-3-yl)oxy)pyrimidin-5-yl)-1H-indol-1-yl)acetyl)-N-(6-bromopyridin-2-yl)-4-fluoropyrrolidine-2-carboxamide]: the IC50 is below 1 µM.

For the compound `CO[C@@H]1CO[C@H]2[C@@H]1OC[C@H]2Oc1ncc(-c2ccc3c(c2)c(C(C)=O)cn3CC(=O)N2C[C@H](F)C[C@H]2C(=O)Nc2cccc(-c3ccccc3Cl)c2F)cn1` [Compound 335], the IC50 is below 1 µM.

Take `CO[C@@H]1CO[C@H]2[C@@H]1OC[C@H]2Oc1ncc(-c2ccc3c(c2)c(C(C)=O)cn3CC(=O)N2C[C@H](F)C[C@H]2C(=O)Nc2cccc(Br)n2)cn1` [Compound 337, (2S,4R)-1-(2-(3-acetyl-5-(2-(((3R,3aR,6R,6aR)-6-methoxyhexahydrofuro [3,2-b]furan-3-yl)oxy)pyrimidin-5-yl)-1H-indol-1-yl)acetyl)-N-(6-bromopyridin-2-yl)-4-fluoropyrrolidine-2-carboxamide]: the IC50 is below 1 µM.

As to `Cc1ncc(-c2ccc3c(c2)c(CC(N)=O)nn3CC(=O)N2C[C@H](F)C[C@H]2C(=O)Nc2cccc(Br)n2)cn1` [Compound 340, (2S,4R)-1-(2-(3-(2-amino-2-oxoethyl)-5-(2-methylpyrimidin-5-yl)-1H-indazol-1-yl)acetyl)-N-(6-bromopyridin-2-yl)-4-fluoropyrrolidine-2-carboxamide], the IC50 lay within 1 to 10 µM.

As for `CC(=O)c1nn(CC(=O)N2C[C@H](F)C[C@H]2C(=O)Nc2cccc(-c3cc(S(N)(=O)=O)ccc3Cl)c2F)c2ccc(-c3cnc(C)nc3)cc12` [Compound 341, (2S,4R)-1-(2-(3-Acetyl-5-(2-methylpyrimidin-5-yl)-1H-indazol-1-yl)acetyl)-N-(2′-chloro-2-fluoro-5′-sulfamoyl-[1,1′-biphenyl]-3-yl)-4-fluoropyrrolidine-2-carboxamide], the IC50 was below 1 µM.

Regarding `CNS(=O)(=O)c1ccc(Cl)c(-c2cccc(NC(=O)[C@@H]3C[C@@H](F)CN3C(=O)Cn3nc(C(C)=O)c4cc(-c5cnc(C)nc5)ccc43)c2F)c1` [Compound 342, (2S,4R)-1-(2-(3-Acetyl-5-(2-methylpyrimidin-5-yl)-1H-indazol-1-yl)acetyl)-N-(2′-chloro-2-fluoro-5′-(N-methylsulfamoyl)-[1,1′-biphenyl]-3-yl)-4-fluoropyrrolidine-2-carboxamide], the IC50 was below 1 µM.

As for `CC(=O)c1nn(CC(=O)N2C[C@H](F)C[C@H]2C(=O)Nc2cccc(-c3cc(S(=O)(=O)N(C)C)ccc3Cl)c2F)c2ccc(-c3cnc(C)nc3)cc12` [Compound 343, (2S,4R)-1-(2-(3-Acetyl-5-(2-methylpyrimidin-5-yl)-1H-indazol-1-yl)acetyl)-N-(2′-chloro-5′-(N,N-dimethylsulfamoyl)-2-fluoro-[1,1′-biphenyl]-3-yl)-4-fluoropyrrolidine-2-carboxamide], the IC50 was below 1 µM.

Consider `CC(=O)c1nn(CC(=O)N2C[C@H](F)C[C@H]2C(=O)Nc2cccc(OC(F)(F)F)n2)c2ccc(-c3cnc(C)nc3)cc12` [Compound 344, (2S,4R)-1-(2-(3-Acetyl-5-(2-methylpyrimidin-5-yl)-1H-indazol-1-yl)acetyl)-4-fluoro-N-(6-(trifluoromethoxy)pyridin-2-yl)pyrrolidine-2-carboxamide], for which the IC50 was below 1 µM.

Consider `CC(=O)c1nn(CC(=O)N2C[C@H](F)C[C@H]2C(=O)Nc2cc(C)cc(Br)n2)c2ccc(-c3cnc(C)nc3)cc12` [Compound 345, (2S,4R)-1-(2-(3-Acetyl-5-(2-methylpyrimidin-5-yl)-1H-indazol-1-yl)acetyl)-N-(6-bromo-4-methylpyridin-2-yl)-4-fluoropyrrolidine-2-carboxamide], for which the IC50 was below 1 µM.

In the case of `CC(=O)c1nn(CC(=O)N2C[C@H](F)[C@@H](O)[C@H]2C(=O)Nc2cccc(Br)n2)c2ccc(-c3cnc(C)nc3)cc12` [Compound 346, (2S,3S,4S)-1-(2-(3-Acetyl-5-(2-methylpyrimidin-5-yl)-1H-indazol-1-yl)acetyl)-N-(6-bromopyridin-2-yl)-4-fluoro-3-hydroxypyrrolidine-2-carboxamide], the IC50 is below 1 µM.

`CC(=O)c1nn(CC(=O)N2C[C@H](F)C[C@H]2C(=O)Nc2cnc(C)c(Br)n2)c2ccc(-c3cnc(C)nc3)cc12` [Compound 349, (2S,4R)-1-(2-(3-Acetyl-5-(2-methylpyrimidin-5-yl)-1H-indazol-1-yl)acetyl)-N-(6-bromo-5-methylpyrazin-2-yl)-4-fluoropyrrolidine-2-carboxamide]: the IC50 is below 1 µM.

For `CC(=O)c1nn(CC(=O)N2[C@@H]3C[C@@H]3C[C@H]2C(=O)Nc2cncc(Br)n2)c2ccc(-c3cnc(C)nc3)cc12` [Compound 350, (1R,3S,5R)-2-(2-(3-Acetyl-5-(2-methylpyrimidin-5-yl)-1H-indazol-1-yl)acetyl)-N-(6-bromopyrazin-2-yl)-2-azabicyclo[3.1.0]hexane-3-carboxamide], the IC50 was below 1 µM.

For the compound `COc1cc(Br)nc(NC(=O)[C@@H]2C[C@@H](F)CN2C(=O)Cn2nc(C(C)=O)c3cc(-c4cnc(C)nc4)ccc32)c1` [Compound 351], the IC50 is below 1 µM.

For `CC(=O)c1nn(CC(=O)N2[C@@H]3C[C@@H]3C[C@H]2C(=O)Nc2cncc(Br)n2)c2ccc(-c3cnc(N)nc3)cc12` [Compound 352, (1R,3S,5R)-2-(2-(3-Acetyl-5-(2-aminopyrimidin-5-yl)-1H-indazol-1-yl)acetyl)-N-(6-bromopyrazin-2-yl)-2-azabicyclo[3.1.0]hexane-3-carboxamide], the IC50 was below 1 µM.

On to `CC(=O)c1nn(CC(=O)N2C[C@H](F)C[C@H]2C(=O)Nc2cncc(Br)n2)c2ccc(-c3cnc(N)nc3)cc12` [Compound 353, (2S,4R)-1-(2-(3-Acetyl-5-(2-aminopyrimidin-5-yl)-1H-indazol-1-yl)acetyl)-N-(6-bromopyrazin-2-yl)-4-fluoropyrrolidine-2-carboxamide], for which the IC50 is below 1 µM.

Consider `CC(=O)c1nn(CC(=O)N2C[C@H](F)C[C@H]2C(=O)Nc2cncc(Br)n2)c2ccc(-c3cnc(C4CC4)nc3)cc12` [Compound 354, (2S,4R)-1-(2-(3-Acetyl-5-(2-cyclopropylpyrimidin-5-yl)-1H-indazol-1-yl)acetyl)-N-(6-bromopyrazin-2-yl)-4-fluoropyrrolidine-2-carboxamide], for which the IC50 is below 1 µM.

As for `CC(=O)c1nn(CC(=O)N2C[C@H](F)C[C@H]2C(=O)Nc2nc(CC(F)(F)F)cs2)c2ccc(-c3cnc(C)nc3)cc12` [Compound 355, (2S,4R)-1-(2-(3-Acetyl-5-(2-methylpyrimidin-5-yl)-1H-indazol-1-yl)acetyl)-4-fluoro-N-(4-(2,2,2-trifluoroethyl)thiazol-2-yl)pyrrolidine-2-carboxamide], the IC50 is below 1 µM.

`CC(=O)c1nn(CC(=O)N2[C@@H]3C[C@@H]3C[C@H]2C(=O)Nc2cncc(Br)n2)c2ccc(-c3cnc(C4CC4)nc3)cc12` [Compound 356, (1R,3S,5R)-2-(2-(3-acetyl-5-(2-cyclopropylpyrimidin-5-yl)-1H-indazol-1-yl)acetyl)-N-(6-bromopyrazin-2-yl)-2-azabicyclo[3.1.0] hexane-3-carboxamide]: the IC50 is below 1 µM.

On to `CC(=O)c1nn(CC(=O)N2C[C@H](F)C[C@H]2C(=O)Nc2ccn(CC(F)(F)F)n2)c2ccc(-c3cnc(C)nc3)cc12` [Compound 357, (2S,4R)-1-(2-(3-Acetyl-5-(2-methylpyrimidin-5-yl)-1H-indazol-1-yl)acetyl)-4-fluoro-N-(1-(2,2,2-trifluoroethyl)-1H-pyrazol-3-yl)pyrrolidine-2-carboxamide], for which the IC50 is below 1 µM.

Consider `CC(=O)c1nn(CC(=O)N2C[C@H](F)C[C@H]2C(=O)Nc2cccc(Br)c2Cl)c2ccc(-c3cnc(C)nc3)cc12` [Compound 358, (2S,4R)-1-(2-(3-Acetyl-5-(2-methylpyrimidin-5-yl)-1H-indazol-1-yl)acetyl)-N-(3-bromo-2-chlorophenyl)-4-fluoropyrrolidine-2-carboxamide], for which the IC50 is below 1 µM.

Turning to `CC(=O)c1nn(CC(=O)N2C[C@H](F)C[C@H]2C(=O)Nc2cc(Cl)cc(Br)n2)c2ccc(-c3cnc(C)nc3)cc12` [Compound 359, (2S,4R)-1-(2-(3-Acetyl-5-(2-methylpyrimidin-5-yl)-1H-indazol-1-yl)acetyl)-N-(6-bromo-4-chloropyridin-2-yl)-4-fluoropyrrolidine-2-carboxamide], the IC50 was below 1 µM.
